Holding throughout (test): area under dose-response curve of surviving fraction (unscaled, Aref=0) (surviving fraction x log10(nM)); higher = more resistant
Common to all, as to details: exposure time: 5 days; dose range 0.5-1000 nM

Compound in test [1]: COc1ccc(-c2cc3c(C)nc(N)nc3n([C@H]3CC[C@H](OCCO)CC3)c2=O)cn1
Put shortly: (§1)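 Tumour cell lines in 384-well plates were exposed for five days to eight inhibitor concentrations from 0.5 to 1000 nM. Viability was read by CellTiter-Glo luminescence, normalised to DMSO-only wells, in three screens per line. Dose-response survival curves were fitted to surviving fractions by 3-parameter logistic regression in the drc R package. Area under the curve is the unscaled activity area (Aref = 0) over log10 dose.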

Compound in another test: C=CCn1c(=O)c2cnc(Nc3ccc(N4CCN(C)CC4)cc3)nc2n1-c1cccc(C(C)(C)O)n1 [MK-1775]
The essentials:
as §1

Compound in another test: Cc1ccc(NC(=O)c2ccc(CN3CCN(C)CC3)cc2)cc1Nc1nccc(-c2cccnc2)n1 [IMATINIB]
The essentials: as §1

Compound in a further test: Cn1c(=O)n(-c2ccc(C(C)(C)C#N)cc2)c2c3cc(-c4cnc5ccccc5c4)ccc3ncc21 [BEZ-235]
Put shortly: as §1

Compound in a further test: Cc1c(N)nc([C@H](CC(N)=O)NC[C@H](N)C(N)=O)nc1C(=O)N[C@H](C(=O)N[C@H](C)[C@@H](O)[C@H](C)C(=O)N[C@H](C(=O)NCCc1nc(-c2nc(C(=O)NCCC[S+](C)C)cs2)cs1)[C@@H](C)O)[C@@H](OC1OC(CO)C(O)C(O)C1OC1OC(CO)C(O)C(OC(N)=O)C1O)c1cnc[nH]1 [BLEOMYCIN]
Put shortly:
as §1

Compound in a further test: O=C(CCCCCCC(=O)Nc1ccccc1)NO [VORINOSTAT]
The essentials: as §1

Compound in a further test: Cn1ncnc1[C@H]1c2n[nH]c(=O)c3cc(F)cc(c23)N[C@@H]1c1ccc(F)cc1 [BMN-673]
The essentials:
as §1

Compound in the next test: CC/C(=C(\c1ccc(O)cc1)c1ccc(OCCN(C)C)cc1)c1ccccc1 [AFIMOXIFENE]
The essentials:
as §1

Compound in test [2]: CCc1cc(Nc2nccc(-c3c(-c4ccc(OC)c(C(=O)Nc5c(F)cccc5F)c4)nc4ccccn34)n2)c(OC)cc1N1CCC(N2CCN(S(C)(=O)=O)CC2)CC1
The essentials: as §1

Compound in test [3]: C[C@H](CN(C)C)Oc1nc(Nc2cc3cccc(Cl)c3cn2)cnc1C#N
Put shortly: as §1

Compound in another test: Cc1cn(-c2cc(NC(=O)c3ccc(C)c(Nc4nccc(-c5cccnc5)n4)c3)cc(C(F)(F)F)c2)cn1 [NILOTINIB]
Put shortly:
as §1

Compound in another test: COc1cc2nccc(Oc3ccc(NC(=O)C4(C(=O)Nc5ccc(F)cc5)CC4)cc3)c2cc1OC [CABOZANTINIB]
Put shortly:
as §1

Turning to HS57T LUNG, the “area under dose-response curve” value in test [1] came out at 2.21; with MK-1775, 2.19; with IMATINIB, 3.57; with BEZ-235 it was 1.94; with BLEOMYCIN it was 2.57; with VORINOSTAT, 3.16. In addition, the “area under dose-response curve” value in the test with BMN-673 amounted to 2.92; with AFIMOXIFENE, 3.68; in [2], 3.36; in test [3], 2.65; with NILOTINIB it was 3.38; with CABOZANTINIB, 3.09.
